These results are taken from patent publication US12600709B2, “Nonpeptide somatostatin type 5 receptor agonists and uses thereof” (Crinetics Pharmaceuticals, Inc., priority 2019, dated 2026).

This experiment concerns the target T1, human somatostatin receptor subtype 5 (Homo sapiens, UniProt P35346).
T1 construct: expressed in transfected cells
As to the kind of experiment: cAMP assay for SST5R (inhibition of cAMP in CHO-K1 cells). The settings on record: Table A; inhibition of cAMP via human SST5 receptor; read-out: SST5 potency. In kind it is cell-based. The method, boiled down: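 CHO-K1 cells stably expressing human SSTR5 were treated 20 min at 37 °C with compounds plus 1.6 μM NKH477 in HBSS, 0.5 mM HEPES pH 7.4, 0.1% BSA, 0.2 mM IBMX. Lysate cAMP measured by HTRF against a standard curve; EC50 from cAMP-versus-concentration plots.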

Where only a bound is given, the exact number is not on record here.

T1 sequence (P35346 whole entry): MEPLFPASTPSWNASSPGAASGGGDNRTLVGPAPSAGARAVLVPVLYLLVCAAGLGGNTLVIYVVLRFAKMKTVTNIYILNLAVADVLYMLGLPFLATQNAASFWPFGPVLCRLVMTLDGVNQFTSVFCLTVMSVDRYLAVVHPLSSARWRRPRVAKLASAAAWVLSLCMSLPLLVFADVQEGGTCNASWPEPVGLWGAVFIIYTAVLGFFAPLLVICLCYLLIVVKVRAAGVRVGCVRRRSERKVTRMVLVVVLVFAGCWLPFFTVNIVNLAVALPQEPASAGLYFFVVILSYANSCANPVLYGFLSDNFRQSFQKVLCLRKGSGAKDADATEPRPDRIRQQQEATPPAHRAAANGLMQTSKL

On to `Cc1cccc2[nH]c(-c3cncc(C(=O)NC(C)C4CC4)c3N3CC[C@](C)(N)C3)nc12` (stereo partly drawn) [2-14, 4-[(3S)-3-amino-3-methylpyrrolidin-1-yl]-N-(1-cyclopropylethyl)-5-(4-methyl-1H-1,3-benzodiazol-2-yl)pyridine-3-carboxamide], for which the EC50 is less than 0.01 µM.

Regarding `Cc1cc(F)cc(-c2cncc(C(=O)NC3C4CC5CC(C4)CC3C5)c2N2CC[C@](C)(N)C2)c1` (stereo partly drawn) [1-18, N-(adamantan-2-yl)-4-[(3S)-3-amino-3-methylpyrrolidin-1-yl]-5-(3-fluoro-5-methylphenyl)pyridine-3-carboxamide], the EC50 fell in the range of 0.01 to 0.1 µM.

As to `C[C@H](NC(=O)c1ccnc(-c2cc(F)cc(F)c2)c1N1CC[C@](C)(N)C1)c1ccccc1` [3-3, 3-[(3S)-3-amino-3-methylpyrrolidin-1-yl]-2-(3,5-difluorophenyl)-N-[(1S)-1-phenylethyl]pyridine-4-carboxamide], the EC50 fell in the range of 0.1 to 1 µM.

For the compound `CC(NC(=O)c1cnc(C#N)c(-c2cc(F)cc(F)c2)c1N1CC[C@](C)(N)C1)c1cn(C)nn1` (stereo partly drawn) [1-133, 4-[(3S)-3-amino-3-methylpyrrolidin-1-yl]-6-cyano-5-(3,5-difluorophenyl)-N-[1-(1-methyl-1H-1,2,3-triazol-4-yl)ethyl]pyridine-3-carboxamide], the EC50 lay within 0.1 to 1 µM.

For `Cc1cccc2[nH]c(-c3cncc(C(=O)N4CCC(C(C)(C)C)C4)c3N3CC[C@](C)(N)C3)nc12` (stereo partly drawn) [2-27, (3S)-1-[3-(3-tert-butylpyrrolidine-1-carbonyl)-5-(4-methyl-1H-1,3-benzodiazol-2-yl)pyridin-4-yl]-3-methylpyrrolidin-3-amine], the EC50 was less than 0.01 µM.

Turning to `N#Cc1ncc(C(=O)NC23CC(C2)C3)c(N2CC[C@](N)(CO)C2)c1-c1cc(F)cc(F)c1` (single isomer, unassigned) [1-99], the EC50 was more than 1 µM.

In the case of `CC(C)(NC(=O)c1cncc(-c2cc(F)cc(F)c2)c1N1CC[C@](C)(N)C1)C1CC1` [1-40, 4-[(3S)-3-amino-3-methylpyrrolidin-1-yl]-N-(2-cyclopropylpropan-2-yl)-5-(3,5-difluorophenyl)pyridine-3-carboxamide], the EC50 fell in the range of 0.01 to 0.1 µM.

For `C[C@H](NC(=O)c1cnc(OCC(F)(F)F)c(-c2cc(F)cc(F)c2)c1N1CC[C@](C)(N)C1)C1CC1` [1-190, 4-[(3S)-3-amino-3-methylpyrrolidin-1-yl]-N-[(1S)-1-cyclopropylethyl]-5-(3,5-difluorophenyl)-6-(2,2,2-trifluoroethoxy)pyridine-3-carboxamide], the EC50 is less than 0.01 µM.

`CC1(C)CC1CNC(=O)c1cncc(-c2cc(F)cc(F)c2)c1N1CC[C@](C)(N)C1` (stereo partly drawn) [1-43, 4-[(3S)-3-amino-3-methylpyrrolidin-1-yl]-5-(3,5-difluorophenyl)-N-[(2,2-dimethylcyclopropyl)methyl]pyridine-3-carboxamide]: the EC50 was less than 0.01 µM.

For the compound `C[C@H](NC(=O)c1cnc(C2CC2)c(-c2cc(F)cc(F)c2)c1N1CC[C@](C)(N)C1)C(F)(F)F` [1-290, 4-[(3S)-3-amino-3-methylpyrrolidin-1-yl]-6-cyclopropyl-5-(3,5-difluorophenyl)-N-[(2S)-1,1,1-trifluoropropan-2-yl]pyridine-3-carboxamide], the EC50 is less than 0.01 µM.

`COCC1(N)CCN(c2c(C(=O)NC34CC(C3)C4)cncc2-c2cc(F)cc(F)c2)C1` (centres unmarked) [1-36, 4-[3-amino-3-(methoxymethyl)pyrrolidin-1-yl]-N—{bicyclo[1.1.1]pentan-1-yl}-5-(3,5-difluorophenyl)pyridine-3-carboxamide]: the EC50 fell in the range of 0.01 to 0.1 µM.

Consider `CCNC(=O)c1cncc(-c2nc3c(C)cccc3[nH]2)c1N1CC[C@](C)(N)C1` [2-1, 4-[(3S)-3-amino-3-methylpyrrolidin-1-yl]-N-ethyl-5-(4-methyl-1H-1,3-benzodiazol-2-yl)pyridine-3-carboxamide], for which the EC50 is 0.01 to 0.1 µM.

As to `COC[C@]1(N)CCN(c2c(C(=O)N[C@@H](C)C3CC3)cnc(C#N)c2-c2cc(F)cc(F)c2)C1` [1-117, 4-[(3S)-3-amino-3-(methoxymethyl)pyrrolidin-1-yl]-6-cyano-N-[(1S)-1-cyclopropylethyl]-5-(3,5-difluorophenyl)pyridine-3-carboxamide], the EC50 was 0.1 to 1 µM.

With `C[C@H](NC(=O)c1cncc(-c2cccc(OC(F)F)c2)c1N1CC[C@](C)(N)C1)C1CC1` [1-149, 4-[(3S)-3-amino-3-methylpyrrolidin-1-yl]-N-[(1S)-1-cyclopropylethyl]-5-[3-(difluoromethoxy)phenyl]pyridine-3-carboxamide], the EC50 is less than 0.01 µM.

Take `CC[C@H](NC(=O)c1cncc(-c2nc3c(C)cccc3[nH]2)c1N1CC[C@](C)(N)C1)C(F)(F)F` [2-40, 4-[(3S)-3-amino-3-methylpyrrolidin-1-yl]-5-(4-methyl-1H-1,3-benzodiazol-2-yl)-N-[(2S)-1,1,1-trifluorobutan-2-yl]pyridine-3-carboxamide]: the EC50 is less than 0.01 µM.

On to `C[C@H](NC(=O)c1cncc(-c2nc3c(F)cccc3[nH]2)c1N1CC[C@](C)(N)C1)C(F)(F)F` [2-24, 4-[(3S)-3-amino-3-methylpyrrolidin-1-yl]-5-(4-fluoro-1H-1,3-benzodiazol-2-yl)-N-[(2S)-1,1,1-trifluoropropan-2-yl]pyridine-3-carboxamide], for which the EC50 was less than 0.01 µM.

As for `C[C@H](NC(=O)c1cnc(C#N)c(-c2cc(F)cc(F)c2)c1N1CC[C@H](N)C1)c1ccccn1` [1-95, 4-[(3S)-3-aminopyrrolidin-1-yl]-6-cyano-5-(3,5-difluorophenyl)-N-[(1S)-1-(pyridin-2-yl)ethyl]pyridine-3-carboxamide], the EC50 was less than 0.01 µM.

Take `C[C@H](NC(=O)c1cncc(-c2cc(F)cc(OC(F)F)c2)c1N1CC[C@](C)(N)C1)C1CC1` [1-143, 4-[(3S)-3-amino-3-methylpyrrolidin-1-yl]-N-[(1S)-1-cyclopropylethyl]-5-[3-(difluoromethoxy)-5-fluorophenyl]pyridine-3-carboxamide]: the EC50 was less than 0.01 µM.

Take `CC(C)C(NC(=O)c1cncc(-c2cc(F)cc(F)c2)c1N1CC[C@](C)(N)C1)C(F)(F)F` (stereo partly drawn) [1-45, 4-[(3S)-3-amino-3-methylpyrrolidin-1-yl]-5-(3,5-difluorophenyl)-N-(1,1,1-trifluoro-3-methylbutan-2-yl)pyridine-3-carboxamide]: the EC50 was less than 0.01 µM.

`COc1ncc(C(=O)N2CCCCC2)c(N2CC[C@H](N)C2)c1-c1cc(F)cc(F)c1` [1-235, (3S)-1-[3-(3,5-difluorophenyl)-2-methoxy-5-(piperidine-1-carbonyl)pyridin-4-yl]pyrrolidin-3-amine]: the EC50 is more than 1 µM.

As for `N#Cc1cccc(-c2cncc(C(=O)NCc3ccccc3)c2N2CC[C@H](N)C2)c1` [1-9, 4-[(3S)-3-aminopyrrolidin-1-yl]-N-benzyl-5-(3-cyanophenyl)pyridine-3-carboxamide], the EC50 lay within 0.1 to 1 µM.

Take `C[C@H](NC(=O)c1cnc(C(F)(F)F)c(-c2cc(F)cc(F)c2)c1N1CC[C@](C)(N)C1)C1CC1` [1-189, 4-[(3S)-3-amino-3-methylpyrrolidin-1-yl]-N-[(1S)-1-cyclopropylethyl]-5-(3,5-difluorophenyl)-6-(trifluoromethyl)pyridine-3-carboxamide]: the EC50 is less than 0.01 µM.

In the case of `CC1(CNC(=O)c2cncc(-c3cc(F)cc(F)c3)c2N2CC[C@](C)(N)C2)CC1` [1-32, 4-[(3S)-3-amino-3-methylpyrrolidin-1-yl]-5-(3,5-difluorophenyl)-N-[(1-methylcyclopropyl)methyl]pyridine-3-carboxamide], the EC50 was less than 0.01 µM.

`C[C@]1(N)CCN(c2c(C(=O)N[C@H]3C[C@@H](F)C3)cncc2-c2cc(F)cc(F)c2)C1` [1-59, 4-[(3S)-3-amino-3-methylpyrrolidin-1-yl]-5-(3,5-difluorophenyl)-N-[cis-3-fluorocyclobutyl]pyridine-3-carboxamide]: the EC50 is less than 0.01 µM.

With `C[C@H](NC(=O)c1cnc(C#N)c(-c2cc(F)cc(F)c2)c1N1CC[C@@](N)(CC(F)F)C1)C1CC1` (single isomer, unassigned) [1-119], the EC50 was in the range of 0.1 to 1 µM.

On to `C[C@H](NC(=O)c1cnc(OC2CC2)c(-c2cc(F)cc(F)c2)c1N1CC[C@](C)(N)C1)C1CC1` [1-191, 4-[(3S)-3-amino-3-methylpyrrolidin-1-yl]-6-cyclopropoxy-N-[(1S)-1-cyclopropylethyl]-5-(3,5-difluorophenyl)pyridine-3-carboxamide], for which the EC50 is less than 0.01 µM.

With `COc1ncc(C(=O)N[C@@H](C)C(F)(F)F)c(N2CC[C@](C)(N)C2)c1Br` (single isomer, unassigned) [1-274], the EC50 was more than 1 µM.

Turning to `C[C@H](NC(=O)c1ncc(C#N)c(-c2cc(F)cc(F)c2)c1N1CC[C@](C)(N)C1)C1CC1` [4-3, 3-[(3S)-3-amino-3-methylpyrrolidin-1-yl]-5-cyano-N-[(1S)-1-cyclopropylethyl]-4-(3,5-difluorophenyl)pyridine-2-carboxamide], the EC50 was less than 0.01 µM.

`Cc1cc(F)cc(-c2cncc(C(=O)NCC3CC3)c2N2CC[C@](C)(N)C2)c1` [1-26, 4-[(3S)-3-amino-3-methylpyrrolidin-1-yl]-N-(cyclopropylmethyl)-5-(3-fluoro-5-methylphenyl)pyridine-3-carboxamide]: the EC50 was less than 0.01 µM.

Take `C[C@]1(N)CCN(c2c(C(=O)NC3CCCC3)ccnc2-c2cc(F)cc(F)c2)C1` [3-8, 3-[(3S)-3-amino-3-methylpyrrolidin-1-yl]-N-cyclopentyl-2-(3,5-difluorophenyl)pyridine-4-carboxamide]: the EC50 was 0.01 to 0.1 µM.

In the case of `C[C@]1(N)CCN(c2c(C(=O)NC3CCC(F)(F)CC3)cnc(C(F)(F)F)c2-c2cc(F)cc(F)c2)C1` [1-211, 4-[(3S)-3-amino-3-methylpyrrolidin-1-yl]-N-(4,4-difluorocyclohexyl)-5-(3,5-difluorophenyl)-6-(trifluoromethyl)pyridine-3-carboxamide], the EC50 is less than 0.01 µM.

For `CC(C)(C)NC(=O)c1cncc(-c2cc(F)cc(F)c2)c1N1CC[C@](C)(N)C1` [1-29, 4-[(3S)-3-amino-3-methylpyrrolidin-1-yl]-N-tert-butyl-5-(3,5-difluorophenyl)pyridine-3-carboxamide], the EC50 was 0.01 to 0.1 µM.
